Results: the supplement of paper PMC10307832

Tests used:
Assay in all cases: relative viability (nuclei count vs DMSO), 5 days (fraction); higher = more cells survive
[1] = compound: CC1=CC=C(C=C1)C(=O)CN2C3=C(CCCC3)SC2=N [Pifithrin_alpha] + CS(=O)(=O)CCNCc1ccc(-c2ccc3ncnc(Nc4ccc(OCc5cccc(F)c5)c(Cl)c4)c3c2)o1 [Lapatinib] (partner 2 µM)
Procedure, shortened: (§1)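 Dosing by pin tool came one day after lung cancer cell lines were seeded in 1536-well plates, using either one drug or a fixed anchor-drug dose plus five library-drug doses (not always all listed) in √10 steps. After 5 days, nuclei were counted on 4× images. Relative viability is treated-well nuclei count divided by vehicle-well nuclei count, and values are medians of duplicate plates.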

[2] = compound: CC1=CC=C(C=C1)C(=O)CN2C3=C(CCCC3)SC2=N [Pifithrin_alpha] + COc1cc2c(Oc3ccc(NC(=O)C4(C(=O)Nc5ccc(F)cc5)CC4)cc3F)ccnc2cc1OCCCN1CCOCC1 [Foretinib] (partner 0.25 µM)
Procedure, shortened: as §1

Axitinib + Decitabine = compound: CNC(=O)c1ccccc1Sc1ccc2c(/C=C/c3ccccn3)n[nH]c2c1 [Axitinib] + Nc1ncn([C@H]2C[C@H](O)[C@@H](CO)O2)c(=O)n1 [Decitabine] (partner 2 µM)
Procedure, shortened: as §1

Axitinib + Tozasertib = compound: CNC(=O)c1ccccc1Sc1ccc2c(/C=C/c3ccccn3)n[nH]c2c1 [Axitinib] + Cc1cc(Nc2cc(N3CCN(C)CC3)nc(Sc3ccc(NC(=O)C4CC4)cc3)n2)n[nH]1 [Tozasertib] (partner 0.1 µM)
Procedure, shortened: as §1

| Cell Line | relative viability ([1]; first compound 1 µM) | relative viability ([1]; first compound 3.162 µM) | relative viability ([1]; first compound 10 µM) | relative viability ([1]; first compound 100 µM) | relative viability ([2]; first compound 1 µM) | relative viability ([2]; first compound 3.162 µM) | relative viability ([2]; first compound 10 µM) | relative viability ([2]; first compound 31.62 µM) | relative viability ([2]; first compound 100 µM) | relative viability (Axitinib + Decitabine; first compound 0.005 µM) | relative viability (Axitinib + Decitabine; first compound 0.01581 µM) | relative viability (Axitinib + Decitabine; first compound 0.05 µM) | relative viability (Axitinib + Decitabine; first compound 0.1581 µM) | relative viability (Axitinib + Decitabine; first compound 0.5 µM) | relative viability (Axitinib + Tozasertib; first compound 0.005 µM) | relative viability (Axitinib + Tozasertib; first compound 0.01581 µM) | relative viability (Axitinib + Tozasertib; first compound 0.05 µM) | relative viability (Axitinib + Tozasertib; first compound 0.1581 µM) | relative viability (Axitinib + Tozasertib; first compound 0.5 µM) | relative viability ([1]; first compound 31.62 µM) |
| --- | --- | --- | --- | --- | --- | --- | --- | --- | --- | --- | --- | --- | --- | --- | --- | --- | --- | --- | --- | --- |
| HCC-78 | 0.432 | 0.77 | 0.693 | 0.619 | 0.592 | 0.551 | 0.486 | 0.467 | 0.523 | 0.69 | 0.577 | 0.806 | 0.698 | 0.653 | 0.6 | 0.493 | 0.493 | 0.477 | 0.446 | – |
| HCC-366 | 0.861 | 1.24 | 1.1 | 1.06 | 0.896 | 0.906 | 0.915 | – | 0.527 | 0.361 | 0.356 | 0.393 | 0.323 | 0.423 | 0.135 | 0.116 | 0.133 | 0.136 | 0.142 | – |
| HCC-827 | 0.197 | 0.207 | 0.235 | 0.198 | 1.01 | 0.996 | 0.84 | 0.597 | 0.857 | 0.321 | 0.216 | 0.358 | 0.32 | 0.333 | 0.443 | 0.417 | 0.424 | 0.466 | 0.449 | 0.197 |
| HOP-62 | 0.886 | 1.21 | 0.991 | 1.23 | 1.17 | 1.16 | 1.18 | 1.03 | 1.19 | 0.212 | 0.247 | 0.202 | 0.19 | 0.276 | 0.38 | 0.414 | 0.343 | 0.44 | 0.577 | 0.714 |
| IA-LM | 0.624 | 0.788 | 0.498 | 0.322 | 1.07 | 0.975 | 0.469 | 0.445 | 0.604 | – | – | – | – | – | – | – | – | – | – | 0.407 |
| LC-2-ad | 0.986 | 1.03 | 0.935 | 0.759 | – | 0.902 | 0.904 | – | 0.871 | 0.829 | 0.776 | 0.855 | 0.804 | 0.779 | 0.425 | 0.479 | 0.396 | 0.425 | 0.53 | 0.576 |
| LCLC-97TM1 | – | 1.17 | 0.79 | 1.38 | 0.954 | 1.08 | 0.934 | 0.496 | 0.909 | 0.193 | 0.275 | 0.266 | 0.247 | 0.234 | 0.251 | 0.271 | 0.276 | 0.415 | 0.393 | – |
| LCLC-103H | – | – | – | – | 0.729 | 0.787 | 0.84 | 0.514 | 0.824 | 0.738 | 0.719 | 0.738 | 0.801 | 0.797 | 0.52 | 0.551 | 0.432 | 0.52 | 0.519 | – |
| LK-2 | 0.893 | 1.18 | 0.969 | 1.47 | 1.18 | 1.64 | 1.48 | – | 1.62 | 0.262 | 0.245 | 0.298 | 0.347 | 0.222 | 0.176 | 0.161 | 0.198 | 0.162 | 0.174 | – |
| LOU-NH91 | 0.576 | 0.604 | 0.633 | 0.493 | 0.841 | 0.874 | 0.935 | 0.868 | 0.874 | 0.852 | 0.645 | 0.813 | 0.749 | 0.851 | 0.682 | 0.54 | 0.746 | 0.694 | 0.827 | 0.492 |
| LU99A | 0.852 | 1.21 | 1.12 | 1.18 | 0.772 | 0.866 | 0.861 | 0.398 | 0.776 | 0.719 | 0.987 | 0.761 | 0.905 | 0.857 | 0.27 | 0.266 | 0.264 | 0.369 | 0.419 | – |
| NCI-H441 | – | – | – | – | 0.974 | 1.17 | 1.04 | – | 0.925 | 0.233 | 0.217 | 0.253 | 0.21 | 0.27 | 0.746 | 0.585 | 0.658 | 0.789 | 0.796 | – |
| NCI-H522 | – | – | – | – | – | – | – | – | – | 0.639 | 0.725 | 0.625 | 0.63 | 0.624 | 0.662 | 0.573 | 0.46 | 0.575 | 0.577 | – |
| NCI-H1299 | 0.976 | 0.985 | 1.02 | 0.947 | 1.04 | 1.14 | 1.07 | 0.889 | 1.07 | – | – | – | – | – | – | – | – | – | – | 0.73 |
| NCI-H1563 | 0.623 | 0.863 | 0.931 | 1.01 | 0.879 | 0.912 | 0.875 | 0.881 | 0.81 | – | – | – | – | – | – | – | – | – | – | 0.769 |
| NCI-H1623 | – | – | – | – | 0.825 | 0.811 | 0.759 | 0.628 | 0.669 | – | – | – | – | – | 0.457 | 0.506 | 0.432 | 0.498 | 0.45 | – |
| NCI-H1648 | – | – | – | – | – | – | – | – | – | 0.537 | 0.574 | 0.568 | 0.519 | 0.478 | 0.506 | 0.643 | – | 0.483 | 0.602 | – |
| NCI-H1703 | 1.07 | 1.03 | 1.04 | 1.32 | 0.285 | 0.336 | 0.374 | 0.34 | 0.266 | – | – | – | – | – | – | – | – | – | – | 0.863 |
| NCI-H1792 | 0.68 | 1.24 | 0.83 | 0.878 | – | – | – | – | – | 0.527 | 0.508 | 0.429 | 0.533 | 0.575 | – | – | – | – | – | 0.508 |
| NCI-H2228 | 1.25 | 1.19 | 0.848 | 0.904 | 1.04 | 0.867 | 0.758 | 0.711 | 0.793 | – | – | – | – | – | 0.266 | 0.289 | 0.308 | 0.293 | 0.291 | 0.747 |
| NCI-H2342 | – | – | – | – | 1.14 | 1.01 | 0.953 | 1.09 | 1.01 | 0.717 | 0.68 | 0.769 | 0.658 | 0.794 | 0.618 | 0.685 | 0.448 | 0.593 | 0.528 | – |
| SW 900 | – | – | – | – | 0.878 | 0.724 | 0.836 | 0.837 | 0.424 | 0.428 | – | 0.477 | 0.4 | 0.602 | 0.84 | 0.572 | 0.571 | 0.639 | 0.642 | – |
